# Laboratory results reported in ChEMBL document CHEMBL3992488, “Anticancer agents interacting with membrane glucose transporters” (Medchemcomm, 2016).
# Where a chain is given by its changes, count along the chain named. pIC50, pKi: −log10 of the molar value.
# Tests used:
# [1] = molecular target: T1, Solute carrier family 2, facilitated glucose transporter member 1 (Homo sapiens) (UniProt P11166); assay: Inhibition of GLUT1 in human HT1080 cells assessed as reduction in [3H]2-deoxy-D-glucose uptake at 10 uM preincubated for 30 mins followed by [3H]2-deoxy-D-glucose addition measured after 60 mins by microbeta scintillation counting method relative to control; assay type: cell-based
# T1 sequence (whole entry): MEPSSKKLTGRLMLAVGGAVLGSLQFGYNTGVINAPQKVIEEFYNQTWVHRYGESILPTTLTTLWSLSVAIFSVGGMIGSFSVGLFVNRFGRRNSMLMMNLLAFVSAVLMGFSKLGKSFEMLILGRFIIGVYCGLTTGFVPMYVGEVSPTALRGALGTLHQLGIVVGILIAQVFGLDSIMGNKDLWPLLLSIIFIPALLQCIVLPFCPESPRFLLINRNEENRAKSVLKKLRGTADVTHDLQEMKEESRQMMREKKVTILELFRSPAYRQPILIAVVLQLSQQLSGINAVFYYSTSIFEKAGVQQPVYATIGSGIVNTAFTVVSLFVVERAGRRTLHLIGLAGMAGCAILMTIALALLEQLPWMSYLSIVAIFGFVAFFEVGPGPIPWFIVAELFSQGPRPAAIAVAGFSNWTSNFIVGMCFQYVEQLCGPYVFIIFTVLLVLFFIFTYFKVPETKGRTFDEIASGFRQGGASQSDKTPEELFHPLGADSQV
# [2] = molecular target: T2, Solute carrier family 2, facilitated glucose transporter member 4 (Mus musculus, UniProt P14142); assay: Competitive inhibition of GLUT4 in mouse 3T3L1 cells assessed as reduction in insulin-stimulated [3H]-2-deoxy-D-glucose uptake preincubated for 20 mins followed by measured for [3H]-2-deoxy-D-glucose addition measured after 1 to 10 mins by Lineweaver-Burk plot analysis; assay type: cell-based
# T2 sequence (P14142 whole entry): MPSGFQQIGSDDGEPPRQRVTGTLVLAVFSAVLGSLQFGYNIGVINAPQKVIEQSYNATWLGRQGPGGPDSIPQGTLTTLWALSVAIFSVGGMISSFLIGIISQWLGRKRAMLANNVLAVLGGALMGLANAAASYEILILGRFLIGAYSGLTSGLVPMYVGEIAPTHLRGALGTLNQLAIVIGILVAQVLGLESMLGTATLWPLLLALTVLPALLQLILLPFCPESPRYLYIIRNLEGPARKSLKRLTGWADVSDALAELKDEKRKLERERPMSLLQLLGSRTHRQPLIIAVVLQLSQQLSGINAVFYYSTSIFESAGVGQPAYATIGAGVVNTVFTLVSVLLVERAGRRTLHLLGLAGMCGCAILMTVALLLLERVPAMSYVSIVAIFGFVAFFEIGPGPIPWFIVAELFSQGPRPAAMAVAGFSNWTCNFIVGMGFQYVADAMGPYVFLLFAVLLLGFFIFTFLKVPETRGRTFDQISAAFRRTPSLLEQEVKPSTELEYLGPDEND
# [3] = organism: Homo sapiens; assay: (§1) Inhibition of PI3K in human MCF7 cells assessed as reduction in insulin-stimulated GLUT4 translocation by measuring reduction in [1-14C]-2-deoxy-D-glucose uptake at 100 uM pretreated for 15 mins followed by insulin stimulation for 10 mins and subsequent addition of [1-14C]-2-deoxy-D-glucose measured after 10 mins relative to control; assay type: cell-based
# [4] = Inhibition of PI3K in human U937 cells assessed as reduction in GLUT4 translocation by measuring reduction in 2-[1,2-3H(N)]deoxy-D-glucose uptake after 3 mins by scintillation spectrometric method; assay type: cell-based; conditions: U-937
# [5] = test system: MCF7; assay: Cytotoxicity against human MCF7 cells assessed as growth inhibition at 100 uM after 24 hrs by CellTiter 96 AQueous Non-Radioactive assay relative to control; assay type: functional; conditions: MCF7, 24 h, read-out: GI
# [6] = organism: Mus musculus; assay: as §1, with “mouse 3T3L1” for “human MCF7”, “6” for “100”, “3 days” for “15 mins”; assay type: cell-based
# [7] = test system: A2780cisR; assay: Cytotoxicity against human A2780cisR cells; assay type: functional, cell-based
# [8] = test system: A2780S; assay: Cytotoxicity against human A2780S cells; assay type: functional, cell-based
# [9] = molecular target: T3, Solute carrier family 2, facilitated glucose transporter member 1 (Homo sapiens, UniProt P11166); assay: Inhibition of GLUT1 in human A431 cells assessed as reduction in 2-[1,2-3H]deoxy-D-glucose uptake measured after 30 mins by liquid scintillation counting method; assay type: cell-based
# T3 sequence (P11166 whole entry): T1 sequence (whole entry)
# [10] = molecular target: T3, Solute carrier family 2, facilitated glucose transporter member 1; assay: Inhibition of GLUT1-mediated [14C]glucose uptake in human erythrocytes; assay type: cell-based
# [11] = molecular target: T4, Solute carrier family 2, facilitated glucose transporter member 2 (Homo sapiens, UniProt P11168); assay: Inhibition of human GLUT2 expressed in Xenopus laevis oocytes assessed as reduction in [3H] 2-deoxyglucose uptake by scintillation spectrometric method; assay type: cell-based
# T4 sequence (P11168 whole entry): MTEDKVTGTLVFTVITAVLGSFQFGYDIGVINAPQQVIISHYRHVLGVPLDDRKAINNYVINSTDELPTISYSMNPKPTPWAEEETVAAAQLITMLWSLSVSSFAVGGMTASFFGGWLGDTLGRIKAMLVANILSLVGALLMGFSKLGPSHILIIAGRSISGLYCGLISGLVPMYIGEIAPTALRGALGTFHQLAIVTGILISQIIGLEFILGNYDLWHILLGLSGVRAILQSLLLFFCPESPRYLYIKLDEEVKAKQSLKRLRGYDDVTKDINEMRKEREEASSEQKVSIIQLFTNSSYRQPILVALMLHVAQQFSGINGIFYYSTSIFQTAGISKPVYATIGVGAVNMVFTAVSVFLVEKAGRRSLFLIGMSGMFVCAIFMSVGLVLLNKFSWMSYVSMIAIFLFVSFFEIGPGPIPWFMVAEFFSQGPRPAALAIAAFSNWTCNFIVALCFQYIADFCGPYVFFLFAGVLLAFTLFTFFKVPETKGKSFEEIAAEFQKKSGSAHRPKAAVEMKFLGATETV
# [12] = molecular target: T5, Solute carrier family 2, facilitated glucose transporter member 4 (Rattus norvegicus, UniProt P19357); assay: Competitive inhibition of GLUT4 in Wistar rat adipocytes assessed as reduction in insulin-stimulated 3-O-[3H]methyl-D-glucose uptake measured for 30 secs by Lineweaver-Burk plot analysis; assay type: cell-based
# T5 sequence (P19357 whole entry): T2 sequence (P14142 whole entry) with D11E, R17Q, L208I, I218L, M273L, S316L, G320E, A379S, K467R, A482T
# [13] = molecular target: T4, Solute carrier family 2, facilitated glucose transporter member 2; assay: Inhibition of human GLUT2 expressed in Xenopus laevis oocytes assessed as reduction in [14C]fructose uptake by scintillation spectrometric method; assay type: cell-based
# [14] = molecular target: T3, Solute carrier family 2, facilitated glucose transporter member 1; assay: Competitive inhibition of glucose displaceable binding of [4-3H]cytochalasin B to GLUT1 in human erythrocyte membranes after 10 mins by double reciprocal plot analysis; assay type: cell membranes
# [15] = molecular target: T3, Solute carrier family 2, facilitated glucose transporter member 1; assay: Competitive inhibition of GLUT1 (unknown origin) expressed in CHO cells assessed as reduction in 2-[1,2-3H]deoxy-D-glucose uptake measured for 30 secs by double reciprocal plot analysis; assay type: cell-based
# [16] = molecular target: T3, Solute carrier family 2, facilitated glucose transporter member 1; assay: Competitive inhibition of GLUT1 in human HL60 cells assessed as reduction in 2-[1,2-3H]deoxy-D-glucose uptake measured for 30 secs by double reciprocal plot analysis; assay type: cell-based
# [17] = molecular target: T2, Solute carrier family 2, facilitated glucose transporter member 4; assay: Inhibition of GLUT4 in mouse 3T3L1 cells assessed as reduction in insulin-stimulated 2-deoxy-D-[14C]glucose uptake; assay type: cell-based
# [18] = molecular target: T3, Solute carrier family 2, facilitated glucose transporter member 1; assay: Inhibition of GLUT1 (unknown origin)-mediated glucose uptake expressed in CHO-K1 cells assessed as reduction in ATP synthesis up to 30 mins in presence of mitochondrial function blocker antimycin A; assay type: cell-based
# [19] = molecular target: T3, Solute carrier family 2, facilitated glucose transporter member 1; assay: Non-competitive inhibition of GLUT1-mediated facilitative uptake of [3H]-2-deoxy-D-glucose in human erythrocyte membranes; assay type: cell membranes
# [20] = molecular target: T3, Solute carrier family 2, facilitated glucose transporter member 1; assay: Inhibition of GLUT1-mediated glucose uptake in human A549 cells assessed as reduction in ATP synthesis up to 30 mins in presence of mitochondrial function blocker antimycin A; assay type: cell-based
# [21] = molecular target: T3, Solute carrier family 2, facilitated glucose transporter member 1; assay: Inhibition of GLUT1 in human MCF7 cells assessed as reduction in [3H]-DG uptake pretreated for 20 mins followed by [3H]-DG addition measured after 6 mins by liquid scintillation counting method; assay type: cell-based
compound,measurement,setting,value
CC(C)NC(=O)COc1cccc(-c2nc(Nc3ccc4[nH]ncc4c3)c3ccccc3n2)c1,inhibition,[1],> 90%
COc1cc([C@H]2Oc3cc([C@H]4Oc5cc(O)cc(O)c5C(=O)[C@@H]4O)ccc3O[C@@H]2CO)ccc1O [SILYBIN A],pKi,[2],4.22
O=C1C[C@@H](c2ccc(O)cc2)Oc2cc(O)cc(O)c21 [NARINGENIN],inhibition,[3],50%
same,pIC50,[4],4.30
same,inhibition of growth at 100 µM,[5],20%
same,inhibition,[6],20%
CC(=O)N[C@H](C(=O)N[C@H]1C(O)O[C@H](CO)[C@@H](O)[C@@H]1O)C(C)(C)SN=O (some centres not stated),pIC50,[7],6.42
same,pIC50,[8],8.38
C/C=C(\C)[C@H](O[C@@H]1O[C@H](CO)[C@@H](O)[C@H](O)[C@H]1O)[C@H](C)/C=C(C)/C=C/C/C(C)=C/Cc1nc(OC)c(OC)c(O)c1C,pIC50,[9],8.31
COc1cc([C@H]2Oc3cc(-c4oc5cc(O)cc(O)c5c(=O)c4O)ccc3O[C@@H]2CO)ccc1O,pKi,[2],3.94
O=C(CCCc1ccc(N(CCCl)CCCl)cc1)OC[C@H]1OC(O)[C@H](O)[C@@H](O)[C@@H]1O (some centres not stated),pIC50,[10],4.19
O=c1c(O)c(-c2cc(O)c(O)c(O)c2)oc2cc(O)cc(O)c12 [MYRICETIN],pIC50,[11],4.77 to 4.92
same,pKi,[12],4.47
same,pIC50,[13],4.77 to 4.92
O=c1c(-c2ccc(O)cc2)coc2cc(O)cc(O)c12 [GENISTEIN],pKi,[14],5.15
same,pKi,[15],5.15
same,pKi,[16],5.15
same,pIC50,[17],4.70
CCOC(=O)[C@@]12CN(C(=O)OC(C)(C)C)CC=C1N(CCc1ccc(OC)c(OC)c1)C(=O)[C@H]2CC(=O)NCc1cccc2ccccc12,pIC50,[18],6.00
same,pKi,[19],6.10
same,pIC50,[20],5.52
O=c1c(O)c(-c2ccc(O)cc2)oc2cc(O)cc(O)c12 [KAEMPFEROL],pIC50,[21],5.40
